Experimental data as given in US11440923B2, “Substituted macrocyclic indole derivatives” (Bayer Aktiengesellschaft, priority 2017, dated 2022).
Structures can show the parent of a compound that is named as a salt. Where two headings read alike, the source gives them in different places.

Experiments:
SUDHL10 cells = assay: Induction of cytotoxicity in SUDHL10 cells (Assay 6); assay type: cell-based
Method in brief: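 Run alongside apoptosis measurements, this cytotoxicity readout used cells treated with compound for 5 h at 37 °C and quantified ATP-based luminescence with CellTiter-Glo.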

MCL-1 = MCL-1 (Homo sapiens (Human), UniProt Q07820, K194A/K197A/R201A); assay: Protein-protein interaction assay MCL-1/Noxa BH3 peptide (MCL-1 assay, TR-FRET); assay type: binding; conditions: MCL-1 Assay IC50 (median)
Sequence of MCL-1 (Q07820 whole entry, looked up, stated change not applied, the tested form may be a part): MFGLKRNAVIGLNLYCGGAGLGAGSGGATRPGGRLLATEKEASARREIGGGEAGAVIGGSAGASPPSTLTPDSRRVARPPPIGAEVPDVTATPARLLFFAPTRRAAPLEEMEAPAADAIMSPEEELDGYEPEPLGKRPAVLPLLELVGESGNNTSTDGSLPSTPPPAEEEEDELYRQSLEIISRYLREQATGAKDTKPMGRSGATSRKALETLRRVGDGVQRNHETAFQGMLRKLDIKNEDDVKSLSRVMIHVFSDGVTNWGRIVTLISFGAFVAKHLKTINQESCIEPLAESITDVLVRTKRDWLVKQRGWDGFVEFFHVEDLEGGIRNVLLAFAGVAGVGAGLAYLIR
Method in brief: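 IC50 came from a 4-parameter regression of the 665/620 nm emission ratio, normalized to DMSO controls. The mix held 1 nM MBP-fused MCL-1 (residues 173-321), a biotin-Noxa BH3 tracer and compound in Tris buffer pH 7, incubated 10 min plus 1 h at 22° C., then overnight at 4° C.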

[1] = 5 h, CellTiter-Glo; read-out: Cytotox SUDHL10 IC50 (median)
[2] = Homo sapiens, SU-DHL10, 5 h, 5 h, CellTiter-Glo; read-out: Cytotox SUDHL10 IC50 (median)
[3] = read-out: Cytotox SUDHL10 IC50 (median); 5 h, CellTiter-Glo

IC50 (MCL-1) [nM] | Compound | IC50 (SUDHL10 cells; [1]) [µM] | IC50 (SUDHL10 cells; [2]) [µM] | IC50 (SUDHL10 cells; [3]) [µM]
0.55 | CCc1c2c(nn1C)C(CCO)OCCCCn1c(C(=O)O)c(CCCOc3cccc4cc(F)ccc34)c3ccc(Cl)c-2c31 (single isomer, unassigned; enantiomer 1) [Example 45, (+)-4-chloro-3-ethyl-7-{3-[(6-fluoronaphthalen-1-yl)oxy]propyl}-15-(2-hydroxyethyl)-2-methyl-2,10,11,12,13,15-hexahydropyrazolo[4′,3′:9,10][1,6]oxazacycloundecino[8,7,6-hi]indole-8-carboxylic Acid (Enantiomer 1)] | 0.073 |  | 
0.48 | CCc1c2c(nn1C)C(CCN1CCOCC1)OCCCCn1c(C(=O)O)c(CCCOc3cccc4cc(F)ccc34)c3ccc(F)c-2c31 (single isomer, unassigned; enantiomer 1) [Example 50, (+)-3-ethyl-4-fluoro-7-{3-[(6-fluoronaphthalen-1-yl)oxy]propyl}-2-methyl-15-[2-(morpholin-4-yl)ethyl]-2,10,11,12,13,15-hexahydropyrazolo[4′,3′:9,10][1,6]oxazacycloundecino[8,7,6-hi]indole-8-carboxylic Acid (Enantiomer 1)] | 0.027 |  | 
65 | Cc1c2c(nn1C)C(CCN1CCOCC1)OCCCCn1c(C(=O)O)c(CCCOc3cccc4ccccc34)c3ccc(Cl)c-2c31 (single isomer, unassigned; enantiomer 2) [Example 15, 4-chloro-2,3-dimethyl-15-[2-(morpholin-4-yl)ethyl]-7-{3-[(naphthalen-1-yl)oxy]propyl}-2,10,11,12,13,15-hexahydropyrazolo[4′,3′:9,10][1,6]oxazacycloundecino[8,7,6-hi]indole-8-carboxylic Acid (Enantiomer 2)] | 9.7 |  | 
75 | Cc1c2c(nn1C)C(CCO)OCCCCn1c(C(=O)O)c(CCCOc3cccc4ccccc34)c3ccc(Cl)c-2c31 (single isomer, unassigned; enantiomer 2) [Example 32, (−)-4-chloro-15-(2-hydroxyethyl)-2,3-dimethyl-7-{3-[(naphthalen-1-yl)oxy]propyl}-2,10,11,12,13,15-hexahydropyrazolo[4′,3′:9,10][1,6]oxazacycloundecino[8,7,6-hi]indole-8-carboxylic Acid (Enantiomer 2)] | > 33 |  | 
36 | CCc1c2c(nn1C)C(CCO)OCCCCn1c(C(=O)O)c(CCCOc3cccc4cc(F)ccc34)c3ccc(Cl)c-2c31 (single isomer, unassigned; enantiomer 2) [Example 46, (−)-4-chloro-3-ethyl-7-{3-[(6-fluoronaphthalen-1-yl)oxy]propyl}-15-(2-hydroxyethyl)-2-methyl-2,10,11,12,13,15-hexahydropyrazolo[4′,3′:9,10][1,6]oxazacycloundecino[8,7,6-hi]indole-8-carboxylic Acid (Enantiomer 2)] | 5.5 |  | 
60 | CCc1c2c(nn1C)C(CCN1CCOCC1)OCCCCn1c(C(=O)O)c(CCCOc3cccc4cc(F)ccc34)c3ccc(F)c-2c31 (single isomer, unassigned; enantiomer 2) [Example 51, (−)-3-ethyl-4-fluoro-7-{3-[(6-fluoronaphthalen-1-yl)oxy]propyl}-2-methyl-15-[2-(morpholin-4-yl)ethyl]-2,10,11,12,13,15-hexahydropyrazolo[4′,3′:9,10][1,6]oxazacycloundecino[8,7,6-hi]indole-8-carboxylic Acid (Enantiomer 2)] | 3.7 |  | 
22 | Cc1c2c(nn1C)C(C)OCCCCn1c(C(=O)O)c(CCCOc3cccc4ccccc34)c3cccc-2c31 (single isomer, unassigned; stereoisomer 2) [Example 3, 2,3,15-trimethyl-7-[3-(naphthalen-1-yloxy)propyl]-2,10,11,12,13,15-hexahydropyrazolo[4′,3′:9,10][1,6]oxazacycloundecino[8,7,6-hi]indole-8-carboxylic Acid Trifluoroacetic Acid Salt (Stereoisomer 2)] |  |  | 26

The next lines start with the compound.

Compound | IC50 (MCL-1) [nM] | IC50 (SUDHL10 cells; [1]) [µM] | IC50 (SUDHL10 cells; [2]) [µM] | IC50 (SUDHL10 cells; [3]) [µM]
CCc1c2c(nn1C)C(CCC1CCOCC1)OCCCCn1c(C(=O)O)c(CCCOc3cccc4cc(F)ccc34)c3ccc(Cl)c-2c31 (single isomer, unassigned; enantiomer 1) [Example 61, 4-chloro-3-ethyl-7-{3-[(6-fluoronaphthalen-1-yl)oxy]propyl}-2-methyl-15-[2-(oxan-4-yl)ethyl]-2,10,11,12,13,15-hexahydropyrazolo[4′,3′:9,10][1,6]oxazacycloundecino[8,7,6-hi]indole-8-carboxylic Acid (Enantiomer 1)] | 0.46 | 0.029 |  | 
Cc1c2c(nn1C)C(CCN1CCOCC1)OCCCCn1c(C(=O)O)c(CCCOc3cccc4cc(F)ccc34)c3ccc(Cl)c-2c31 (single isomer, unassigned; enantiomer 2) [Example 18, 4-chloro-7-{3-[(6-fluoronaphthalen-1-yl)oxy]propyl}-2,3-dimethyl-15-[2-(morpholin-4-yl)ethyl]-2,10,11,12,13,15-hexahydropyrazolo[4′,3′:9,10][1,6]oxazacycloundecino[8,7,6-hi]indole-8-carboxylic Acid (Enantiomer 2)] | 42 |  | 0.77 | 
Cc1c2c(nn1C)C(CCN1CCOCC1)OCCCCn1c(C(=O)O)c(CCCOc3cccc4cc(F)ccc34)c3ccc(F)c-2c31 (single isomer, unassigned; enantiomer 2) [Example 21, 4-fluoro-7-{3-[(6-fluoronaphthalen-1-yl)oxy]propyl}-2,3-dimethyl-15-[2-(morpholin-4-yl)ethyl]-2,10,11,12,13,15-hexahydropyrazolo[4′,3′:9,10][1,6]oxazacycloundecino[8,7,6-hi]indole-8-carboxylic Acid (Enantiomer 2)] | 160 |  | 14 | 
CCc1c2c(nn1C)C(CCC1CCOCC1)OCCCCn1c(C(=O)O)c(CCCOc3cccc4cc(F)ccc34)c3ccc(Cl)c-2c31 (single isomer, unassigned; enantiomer 2) [Example 62, (−)-4-chloro-3-ethyl-7-{3-[(6-fluoronaphthalen-1-yl)oxy]propyl}-2-methyl-15-[2-(oxan-4-yl)ethyl]-2,10,11,12,13,15-hexahydropyrazolo[4′,3′:9,10][1,6]oxazacycloundecino[8,7,6-hi]indole-8-carboxylic Acid (Enantiomer 2)] | 120 | 7.8 |  | 
Cc1c2c(nn1C)C(C)OCCCCn1c(C(=O)O)c(CCCOc3cccc4ccccc34)c3cccc-2c31 (single isomer, unassigned; stereoisomer 1) [Example 2, 2,3,15-trimethyl-7-[3-(naphthalen-1-yloxy)propyl]-2,10,11,12,13,15-hexahydropyrazolo[4′,3′:9,10][1,6]oxazacycloundecino[8,7,6-hi]indole-8-carboxylic Acid Trifluoroacetic Acid Salt (Stereoisomer 1)] | 1.2 |  |  | 2.5
Cc1c2c(nn1C)C(CCN1CCOCC1)OCCCCn1c(C(=O)O)c(CCCOc3cccc4ccccc34)c3cccc-2c31 (single isomer, unassigned; stereoisomer 2) [Example 6, 2,3-dimethyl-15-[2-(morpholin-4-yl)ethyl]-7-[3-(naphthalen-1-yloxy)propyl]-2,10,11,12,13,15-hexahydropyrazolo[4′,3′:9,10][1,6]oxazacycloundecino[8,7,6-hi]indole-8-carboxylic Acid (Stereoisomer 2)] | 51 | 29 |  | 
